Measured values as given in US20100184759A1, “PYRANO-PYRAZOLE-AMINES” (priority 2007, published 2010).

How the values were obtained:
[1] = molecular target: T1, σ1-receptor (Cavia porcellus, UniProt Q60492); experiment: Sigma 1 (Version B) receptor binding, [3H]-(+)-pentazocine, guinea pig brain preparation; conditions: radioligand [3H]-(+)-pentazocine 2 nM
T1 construct: the σ1-receptor preparation was prepared from guinea pig brain; from tissue; host or cells: guinea pig brain membrane homogenate
T1 sequence (Q60492 whole entry): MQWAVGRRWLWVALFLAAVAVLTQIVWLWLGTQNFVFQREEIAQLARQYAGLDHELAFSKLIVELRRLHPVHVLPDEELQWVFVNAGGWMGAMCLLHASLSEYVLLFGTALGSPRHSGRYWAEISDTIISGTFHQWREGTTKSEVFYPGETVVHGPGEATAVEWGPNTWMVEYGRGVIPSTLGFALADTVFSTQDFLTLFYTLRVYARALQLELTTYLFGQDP
Method: In brief the σ1-receptor preparation was prepared from guinea pig brain. The brains were homogenized in 5 to 6 times of volume sucrose solution (0.32M) and homogenized. The homogenate was centrifuged at 2900 rpm, 4° C., 10 min). the supernatant was centrifuged again (23500×g, 4° C., 20 min). The pellet was resuspended in Tris-buffer, incubated for 30 min at room temperature and centrifuged f (23500×g, 4° C., 20 min). The pellet was resuspended in cold TRIS-buffer and homogenized. Then the protein content was measured (approx. 1.5 mg/mL) and the homogenate frozen at −80° C. for later use.
The radioligand used was [^3H]-(+)-Pentazocin in TRIS-buffer. In a volume of 200 μL 50 μL TRIS-buffer, 50 μL compound solution of varying concentration, 50 μL radioligand-solution (8 nM; resulting in 2 nM in the assay) and finally 50 μL of receptor preparation (approx. 1.5 mg/mL) were given into a well of a microplate equipped with a filter. The plate was closed and stirred for 2.5 h at 37° C. and 500 rpm. Following that the solvents were removed by a harvester through the filter. After rinsing with H2O the filter was measured in a scintillation counter ([^3H]-protocol).

[2] = molecular target: T2, σ2-receptor (Rattus norvegicus, UniProt Q5U3Y7); experiment: Sigma 2 (Version B) receptor binding, [3H]-ditolylguanidine, rat liver preparation; conditions: for Ki: radioligand [3H]-ditolylguanidine 3 nM, σ1 sites masked with (+)-pentazocine; for inhibition at 1 µM: compound at 1 μM, value in square brackets
T2 construct: the σ2-Receptorpreparation was prepared from rat liver; from tissue; host or cells: rat liver membrane homogenate
T2 sequence (Q5U3Y7 1-176): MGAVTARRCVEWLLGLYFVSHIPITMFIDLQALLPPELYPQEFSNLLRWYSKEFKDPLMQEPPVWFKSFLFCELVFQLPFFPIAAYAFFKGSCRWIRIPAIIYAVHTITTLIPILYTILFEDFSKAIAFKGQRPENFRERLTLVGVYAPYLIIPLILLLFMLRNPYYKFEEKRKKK
Method: In brief the σ2-Receptorpreparation was prepared from rat liver. The livers were homogenized in 5 to 6 times of volume sucrose solution (0.32M) and homogenized. The homogenate was centrifuged at 2900 rpm, 4° C., 10 min). the supernatant was centrifuged again (31000×g, 4° C., 20 min). The pellet was resuspended in TRIS-buffer, incubated for 30 min at room temperature while stirring and centrifuged f (31000×g, 4° C., 20 min). The pellet was resuspended in cold TRIS-buffer pH 8 and homogenized. Then the protein content was measured (approx. 2 mg/mL) and the homogenate frozen at −80° C. for later use.
The radioligand used was [^3H]-Ditolylguanidin in TRIS-buffer pH 8. The σ1-receptor binding sites were masked through (+)-Pentazocin-solution in TRIS-Puffer pH 8.
In a volume of 200 μL 50 μL compound solution of varying concentration, 50 μL (+)-Pentazocin-solution (2 nM; resulting in 500 nM in the assay), 50 μL radioligand-solution (12 nM; resulting in 3 nM in the assay) and finally 50 μL of receptor preparation (approx. 2 mg/mL) were given into a well of a microplate equipped with a filter. The plate was closed and stirred for 2 h at room temperature and 500 rpm. Following that the solvents were removed by a harvester through the filter. After rinsing with H2O the filter was measured in a scintillation counter ([^3H]-protocol).

SMILES	melting point [°C]	Ki [1] [µM]	Ki [2] [µM]	inhibition at 1 µM [2] [%]
c1ccc(N2CCN(CC3OCCc4c3cnn4-c3ccccc3)CC2)cc1 (stereo not shown) [Example 4, 1-Phenyl-4-(4-phenylpiperazin-1-ylmethyl)-1,4,6,7-tetrahydropyrano[4,3-c]pyrazole]	151	0.0423 ± 0.00332	0.21 ± 0.0542	
CN1CCN(CC2OCCc3c2cnn3-c2ccccc2)CC1 (stereo not shown) [Example 5, 4-(4-Methylpiperazin-1-ylmethyl)-1-phenyl-1,4,6,7-tetrahydropyrano[4,3-c]pyrazole]	66	0.219 ± 0.00722		13
c1ccc(C2CCN(CCC3OCCc4c3cnn4-c3ccccc3)CC2)cc1 (stereo not shown) [Example 9, 1-Phenyl-4-[2-(4-phenyl-piperidin-1-yl)-ethyl]-1,4,6,7-tetrahydro-pyrano[4,3-c]pyrazole]		0.000988 ± 7e-05	0.0151 ± 0.00298	
c1ccc(N2CCN(CCC3OCCc4c3cnn4-c3ccccc3)CC2)cc1 (stereo not shown) [Example 11, 1-Phenyl-4-[2-(4-phenyl-piperazin-1-yl)-ethyl]-1,4,6,7-tetrahydro-pyrano[4,3-c]pyrazole]		0.00294 ± 0.00043	0.431	
CN(C)CCC1OCCc2c1cnn2-c1ccccc1 (stereo not shown) [Example 14, Dimethyl-[2-(1-phenyl-1,4,6,7-tetrahydro-pyrano[4,3-c]pyrazol-4-yl)-ethyl]-amine]		0.024 ± 0.002	1.28	

Continued by falling Ki [1], values first:

melting point [°C]	Ki [1] [µM]	Ki [2] [µM]	inhibition at 1 µM [2] [%]	SMILES
103	1.38		12	CN(C)CC1OCCc2c1cnn2-c1ccccc1 (stereo not shown) [Example 7, N,N-Dimethyl-1-(1-phenyl-1,4,6,7-tetrahydropyrano[4,3-c]pyrazole-4-yl)methanamine]
115	0.169 ± 0.0396		5	c1ccc(-n2ncc3c2CCOC3CN2CCOCC2)cc1 (stereo not shown) [Example 3, 4-(Morpholin-4-ylmethyl)-1-phenyl-1,4,6,7-tetrahydro-pyrano[4,3-c]pyrazole]
89	0.0593 ± 0.0112	0.322		c1ccc(-n2ncc3c2CCOC3CN2CCCC2)cc1 (stereo not shown) [Example 6, 1-Phenyl-4-(pyrrolidin-1-ylmethyl)-1,4,6,7-tetrahydro-pyrano[4,3-c]pyrazole]
91	0.0105 ± 0.00116	0.453		c1ccc(-n2ncc3c2CCOC3CN2CCCCC2)cc1 (stereo not shown) [Example 1, 1-Phenyl-4-(piperidin-1-ylmethyl)-1,4,6,7-tetrahydro-pyrano[4,3-c]pyrazole]
	0.00298 ± 0.00072	0.536		c1ccc(-n2ncc3c2CCOC3CCN2CCCCC2)cc1 (stereo not shown) [Example 8, 1-Phenyl-4-(2-piperidin-1-yl-ethyl)-1,4,6,7-tetrahydro-pyrano[4,3-c]pyrazole]
	0.0016 ± 0.00041	0.0083 ± 0.00266		c1ccc(C2CCN(CC3OCCc4c3cnn4-c3ccccc3)CC2)cc1 (stereo not shown) [Example 2, 1-Phenyl-4-(4-phenylpiperidin-1-ylmethyl)-1,4,6,7-tetrahydropyrano[4,3-c]pyrazole]
